Measurements published in patent publication EP1801112A1, “Bicyclic pyrimidines and bicyclic 3,4-dihydropyrimidines as inhibitors of cellular proliferation” (Warner-Lambert Company LLC, priority 1998, dated 1999).

Tests used:
[1] = biological target: cdc2/cyclinB (Homo sapiens, UniProt P06493); assay: Cyclin-Dependent Kinase Assay cdc2/cyclinB; format: biochemical
Description: (§1) Cyclin-Dependent Kinase Assays (cdk2/cyclinE, cdk2/cyclinA, cdc2/cyclinB)
(§2) All components except the ATP were added to the wells, and the plate was placed on a plate mixer for 2 minutes. The reaction was begun by addition of [^32P]ATP, and the plate was incubated at 25°C for 15 minutes. The reaction was terminated by addition of 0.1 mL of 20% TCA. The plate was kept at 4°C for at least 1 hour to allow the substrate to precipitate. The wells were then washed five times with 0.2 mL of 10% TCA and ^32P incorporation determined with a beta plate counter (Wallac Inc., Gaithersburg, MD).

[2] = biological target: cdk2/cyclinE (Homo sapiens, UniProt P24941); assay: Cyclin-Dependent Kinase Assay cdk2/cyclinE; format: biochemical
Description: as §1, §2

[3] = biological target: T1, PDGF-β receptor tyrosine kinase (Mus musculus, UniProt P05622); assay: PDGF Receptor Tyrosine Kinase Assay; format: biochemical; conditions: glutamate-tyrosine co-polymer substrate, 50 µM ATP
T1 construct: amplify a fragment of DNA that codes for the intracellular tyrosine kinase domain; made in house; host or cells: SF9 insect cells (baculovirus); crude cell lysate used
T1 sequence (P05622 599-961 limits assumed): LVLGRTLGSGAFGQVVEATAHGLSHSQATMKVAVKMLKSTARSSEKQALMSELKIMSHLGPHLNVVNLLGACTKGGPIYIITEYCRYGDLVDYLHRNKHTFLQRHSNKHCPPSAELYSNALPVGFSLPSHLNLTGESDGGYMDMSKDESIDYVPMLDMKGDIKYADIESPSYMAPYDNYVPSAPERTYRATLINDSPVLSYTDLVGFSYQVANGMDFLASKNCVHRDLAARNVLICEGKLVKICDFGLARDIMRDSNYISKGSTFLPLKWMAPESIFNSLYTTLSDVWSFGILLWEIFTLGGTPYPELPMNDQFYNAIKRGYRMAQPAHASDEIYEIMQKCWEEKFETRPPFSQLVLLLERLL
Text: (§3) PDGF and FGF Receptor Tyrosine Kinase Assays
(§4) Full-length cDNAs for the mouse PDGF-β and human FGF-1 (flg) receptor tyrosine kinases were obtained from J. Escobedo and prepared as described in J. Biol. Chem., 1991;262:1482-1487. PCR primers were designed to amplify a fragment of DNA that codes for the intracellular tyrosine kinase domain. The fragment was inserted into a baculovirus vector, cotransfected with AcMNPV DNA, and the recombinant virus isolated. SF9 insect cells were infected with the virus to overexpress the protein, and the cell lysate was used for the assay. Assays were performed in 96-well plates (100 µL/incubation/well), and conditions were optimized to measure the incorporation of ^32P from γ^32P-ATP into a glutamate-tyrosine co-polymer substrate. Briefly, to each well was added 82.5 µL of incubation buffer containing 25 mM Hepes (pH 7.0), 150 mM NaCl, 0.1% Triton X-100, 0.2 mM PMSF, 0.2 mM Na3VO4, 10 mM MnCl2, and 750 µg/mL of Poly (4:1) glutamate-tyrosine followed by […] of inhibitor and 5 µL of enzyme lysate (7.5 µg/µL FGF-TK or 6.0 µg/µL PDGF-TK) to initiate the reaction. Following a 10 minute incubation at 25°C, 10 mL of γ^32P-ATP (0.4 µCi plus 50 µM ATP) was added to each well, and samples were incubated for an additional 10 minutes at 25°C. The reaction was terminated by the addition of 100 µL of 30% trichloroacetic acid (TCA) containing 20 mM sodium pyrophosphate and precipitation of material onto glass fiber mats (Wallac). Filters were washed three times with 15% TCA containing 100 mM sodium pyrophosphate, and the radioactivity retained on the filters counted in a Wallac 1250 Betaplate reader. Nonspecific activity was defined as radioactivity retained on the filters following incubation of samples with buffer alone (no enzyme). Specific enzymatic activity (enzyme plus buffer) was defined as total activity minus nonspecific activity. […]

[4] = biological target: cdk4/D (Homo sapiens, UniProt P11802); assay: Cyclin-Dependent Kinase 4 (cdk4) Assay; format: biochemical
cdk4/D, sequence (P11802 whole entry): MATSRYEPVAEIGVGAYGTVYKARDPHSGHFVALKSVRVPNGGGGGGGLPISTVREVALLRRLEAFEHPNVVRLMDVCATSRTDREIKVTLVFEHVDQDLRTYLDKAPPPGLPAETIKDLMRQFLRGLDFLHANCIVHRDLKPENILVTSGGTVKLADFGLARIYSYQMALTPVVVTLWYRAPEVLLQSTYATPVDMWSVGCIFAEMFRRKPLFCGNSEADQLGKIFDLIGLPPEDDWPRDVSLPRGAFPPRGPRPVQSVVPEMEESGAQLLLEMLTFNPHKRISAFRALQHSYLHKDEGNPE
cdk4/D, sequence (P24385 whole entry, further chain): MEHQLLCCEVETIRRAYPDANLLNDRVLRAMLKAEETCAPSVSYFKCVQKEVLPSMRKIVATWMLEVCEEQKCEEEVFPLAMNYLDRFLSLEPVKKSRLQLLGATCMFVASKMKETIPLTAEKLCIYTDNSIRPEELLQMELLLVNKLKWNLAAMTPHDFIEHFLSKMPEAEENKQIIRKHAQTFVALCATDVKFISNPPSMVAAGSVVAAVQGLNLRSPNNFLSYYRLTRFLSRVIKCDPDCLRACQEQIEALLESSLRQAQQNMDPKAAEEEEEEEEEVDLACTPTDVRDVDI
Description: A typical assay, for instance, measures inhibitory activity against the cyclin D dependent kinase 4 enzyme (cdk4/D). […] The cdk4 assay was carried out as follows.
Cyclin-Dependent Kinase 4 (cdk4) Assay
Enzyme assays for IC50 determinations (Tables 1 and 2) and kinetic evaluation were performed in 96 well filter plates (Millipore MADVN6550). The total volume was 0.1 mL containing a final concentration of 20 mM TRIS (tris[hydroxymethyl]aminomethane), at pH 7.4, 50 mM NaCl, 1 mM dithiothreitol, 10 mM MgCl2, 25 µM ATP containing 0.25 µCi of [^32P]ATP, 20 ng of cdk4, 1 µg of retinoblastoma, and appropriate dilutions of a compound of the present invention. All components except the ATP were added to the wells, and the plate was placed on a plate mixer for 2 minutes. The reaction was started by adding [^32P]ATP and the plate was incubated at 25°C for 15 minutes. The reaction was terminated by addition of 0.1 mL of 20% trichloroacetic acid (TCA). The plate was kept at 4°C for at least 1 hour to allow the substrate to precipitate. The wells were then washed five times with 0.2 mL of 10% TCA and ^32P incorporation was determined with a beta plate counter (Wallac Inc., Gaithersburg, MD).

[5] = biological target: T2, c-Src (Homo sapiens, UniProt P12931); assay: c-Src protein kinase assay; format: biochemical; conditions: poly GluTyr substrate, 5 µM ATP
T2 construct: made in house; host or cells: baculovirus infected insect cells
T2 sequence (P12931 whole entry): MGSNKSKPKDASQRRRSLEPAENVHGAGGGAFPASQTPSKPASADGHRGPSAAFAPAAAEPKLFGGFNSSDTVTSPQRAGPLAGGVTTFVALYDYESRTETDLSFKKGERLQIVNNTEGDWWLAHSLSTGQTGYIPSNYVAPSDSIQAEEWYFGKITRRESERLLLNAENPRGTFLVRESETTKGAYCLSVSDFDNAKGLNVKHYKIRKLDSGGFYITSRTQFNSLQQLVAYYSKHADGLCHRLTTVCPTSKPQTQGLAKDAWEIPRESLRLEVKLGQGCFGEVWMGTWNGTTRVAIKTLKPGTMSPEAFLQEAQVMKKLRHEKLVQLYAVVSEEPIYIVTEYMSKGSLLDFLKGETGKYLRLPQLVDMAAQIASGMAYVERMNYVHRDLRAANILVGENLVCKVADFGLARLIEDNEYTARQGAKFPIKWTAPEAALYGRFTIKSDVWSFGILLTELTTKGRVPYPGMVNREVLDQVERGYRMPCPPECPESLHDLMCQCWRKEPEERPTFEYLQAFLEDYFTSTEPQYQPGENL
Description: The assay was carried out as follows: c-Src kinase was purified from baculovirus infected insect cell lysates using an antipeptide monoclonal antibody directed against the N-terminal amino acids (amino acids 2-17) of c-Src. The antibody, covalently linked to 0.65 µm latex beads, was added to a suspension of insect cell lysis buffer comprised of 150 mM NaCl, 50 mM Tris pH 7.5, 1 mM DTT, 1% NP-40, 2 mM EGTA, 1 mM sodium vanadate, 1 mM PMSF, 1 µg/mL each of leupeptin, pepstatin, and aprotinin. Insect cell lysate containing c-Src protein was incubated with these beads for 3 to 4 hours at 4°C with rotation. At the end of the lysate incubation, the beads were rinsed three times in lysis buffer, resuspended in lysis buffer containing 10% glycerol, and frozen. These latex beads were thawed, rinsed three times in assay buffer (40 mM Tris, pH 7.5, […]) and suspended in the same buffer. In a Millipore 96-well plate with a 0.65 µm polyvinylidine membrane bottom were added the reaction components: 10 µL c-Src beads, 10 µL of 2.5 mg/mL poly GluTyr substrate, 5 µM ATP containing 0.2 µCi labeled ^32P-ATP, 5 µL DMSO containing inhibitors or as a solvent control, and buffer to make the final volume 125 µL. The reaction was started at room temperature by addition of the ATP and quenched 10 minutes later by the addition of 125 µL of 30% TCA, 0.1 M sodium pyrophosphate for 5 minutes on ice. […] The filters were then punched, counted in a liquid scintillation counter, and the data examined for inhibitory activity in comparison to a known inhibitor such as erbstatin. […]

[6] = biological target: cdk2/cyclinA (Homo sapiens, UniProt P24941); assay: Cyclin-Dependent Kinase Assay cdk2/cyclinA; format: biochemical
Description: as §1, §2

[7] = biological target: T3, FGF-1 (flg) receptor tyrosine kinase (Homo sapiens, UniProt P11362); assay: FGF Receptor Tyrosine Kinase Assay; format: biochemical; conditions: glutamate-tyrosine co-polymer substrate, 50 µM ATP
T3 construct: amplify a fragment of DNA that codes for the intracellular tyrosine kinase domain; made in house; host or cells: SF9 insect cells (baculovirus); crude cell lysate used
T3 sequence (P11362 478-767 limits assumed): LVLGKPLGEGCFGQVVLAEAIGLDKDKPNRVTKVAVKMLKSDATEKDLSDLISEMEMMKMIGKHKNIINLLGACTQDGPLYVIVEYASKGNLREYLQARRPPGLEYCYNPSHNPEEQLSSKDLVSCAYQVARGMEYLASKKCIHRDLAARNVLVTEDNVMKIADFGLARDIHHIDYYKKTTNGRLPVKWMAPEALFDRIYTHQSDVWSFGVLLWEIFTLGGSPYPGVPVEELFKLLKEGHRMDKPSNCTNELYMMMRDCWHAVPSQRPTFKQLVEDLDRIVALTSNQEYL
Description: as §3
as §4, with “PCR” for “Full-length cDNAs for the mouse PDGF-β and human FGF-1 (flg) receptor tyrosine kinases were obtained from J. Escobedo and prepared as described in J. Biol. Chem., 1991;262:1482-1487. PCR”, “Following a 10 minute incubation at 25°C, 10 mL of γ^32P-ATP (0.4 µCi plus 50 µM ATP) was added to each well, and samples were incubated for an additional 10 minutes at 25°C.” left out, “Filters were washed three times with 15% TCA containing 100 mM sodium pyrophosphate, and the radioactivity retained on the filters counted in a Wallac 1250 Betaplate reader.” left out

[8] = system: human umbilical vein endothelial cells; assay: Human Umbilical Vein Endothelial Cell (HUVEC) Proliferation Assay; format: cell-based; conditions: 96 h, four days incubation, Sulphorhodamine B staining
Description: The compounds of Formula I are useful for treating cell proliferative disorders concerning angiogenesis and have been evaluated in a human umbilical vein endothelial cell in vitro assay. The assay described below is used to determine the anti-proliferative effects of the invention compounds on human umbilical vein endothelial cells, and the results are shown in Table 7.
Human Umbilical Vein Endothelial Cell (HUVEC) Proliferation Assay
Ninety-six well tissue culture plates are seeded with 100 µL of cells in all wells of rows A->G with row H remaining empty as a blank. HUVEC (Clonetics, San Diego, CA) are grown in endothelial growth medium (EGM media, Clonetics), containing 2% fetal bovine serum. The cell seed density for HUVEC cells is 20,000 per mL. C6 cells (ATCC Cat. No. CCL-107) are seeded at 6000 per mL in F10 medium (nutrient mixture Hemes) supplemented with 15% horse serum, 2.5% fetal bovine serum, and 6.0 mL 200 mM Glutamine per 600 mL medium. A90 cells (Suny, Buffalo, NY) are also seeded at 6000 per mL, but they are grown in RPMI 1640 (Roswell Park Memorial Institute) plus 10% fetal bovine serum. Unless noted otherwise, tissue culture media and components are from GIBCO. The cells are allowed to incubate at 37°C, 5% CO2, and 100% relative humidity for 16-24 hours.
Invention compounds are prepared by dissolving them in DMSO at a concentration of 5 mM, followed by dilution to 50 µM in EGM media. One hundred microliters of the compounds are applied to duplicate wells in column 1 of the previously prepared cell plates. Column 1 row H receives 100 µL of EGM media. The compounds in column 1 are diluted across the plates using serial twofold dilutions.
The plates are incubated as above for an additional four days before being stained with Sulphorhodamine B. Staining is performed as follows: The media is removed from the plates, and the cells are fixed using 10% trichloroacetic acid for 30 minutes at 4°C. Following fixation, the plates are washed five times with distilled water after which 100 µL of Sulphorhodamine B is added to each well. Sulphorhodamine B is dissolved in 1% acetic acid to a concentration of .075%. Following staining, excess stain is removed from the wells, and the plates are washed four times with 1% acetic acid. The plates are allowed to air dry before the bound dye is solubilized in 100 µL of 10 mM unbuffered TRIS base. Absorbance is measured on a 96 well plate reader at […] using a reference filter wavelength of 630 nm. […] Sulphorhodamine B and TRIS are from Sigma Chemical Company. Acetic acid and trichloroacetic acid are from Mallinckrodt AR.

cdc2/cyclinB, sequence (P06493 whole entry): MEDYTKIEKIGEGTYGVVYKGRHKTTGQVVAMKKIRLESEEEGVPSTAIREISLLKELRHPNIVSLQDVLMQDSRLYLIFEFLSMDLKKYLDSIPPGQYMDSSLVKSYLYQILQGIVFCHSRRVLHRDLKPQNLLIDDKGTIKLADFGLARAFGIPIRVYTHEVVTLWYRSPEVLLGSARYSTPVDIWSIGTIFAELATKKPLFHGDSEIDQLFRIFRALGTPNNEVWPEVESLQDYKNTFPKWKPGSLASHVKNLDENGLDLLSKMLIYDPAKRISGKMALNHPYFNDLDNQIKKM
cdc2/cyclinB, sequence (P14635 whole entry, further chain): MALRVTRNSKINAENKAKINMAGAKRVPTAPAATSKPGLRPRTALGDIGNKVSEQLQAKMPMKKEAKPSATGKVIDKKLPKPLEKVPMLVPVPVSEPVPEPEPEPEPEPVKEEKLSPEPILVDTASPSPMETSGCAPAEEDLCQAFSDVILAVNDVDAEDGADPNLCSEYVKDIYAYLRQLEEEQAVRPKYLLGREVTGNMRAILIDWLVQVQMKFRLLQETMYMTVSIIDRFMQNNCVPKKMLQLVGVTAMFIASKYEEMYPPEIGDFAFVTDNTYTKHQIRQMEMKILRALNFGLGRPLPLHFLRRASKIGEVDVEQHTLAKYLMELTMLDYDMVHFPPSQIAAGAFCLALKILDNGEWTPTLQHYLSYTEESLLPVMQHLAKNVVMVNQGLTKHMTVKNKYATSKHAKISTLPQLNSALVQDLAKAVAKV

Row | Compound | IC50 [1] [nM] | IC50 [2] [nM] | IC50 [3] [µM] | IC50 [4] [nM] | IC50 [5] [nM] | IC50 [6] [nM] | IC50 [7] [µM] | IC50 [8] [nM]
1 | O=C1NCc2cnc(Nc3ccc(N4CCCC(O)C4)cc3)nc2N1C1CCCC1 (stereo not drawn) [Example 16, 1-Cyclopentyl-7-[4-(3-hydroxypiperidin-1-yl)phenylamino]-3,4-dihydropyrimido[4,5-d]pyrimidin-2(1H)-one] | 14900 | 1500 | 0.83 | 630 | 4120 | 640 | – | –
2 | CC1CN(c2ccc(Nc3ncc4c(n3)N(C3CCCC3)C(=O)NC4)cc2)CC(C)N1 (stereo not drawn) [Example 18, 1-Cyclopentyl-7-[4-(3,5-dimethylpiperazin-1-yl)phenylamino]-3,4-dihydropyrimido[4,5-d]pyrimidin-2(1H)-one] | – | 2000 | 0.21 | 350 | 400 | – | – | –
3 | O=c1ncc2cnc(Nc3ccc(-n4cccn4)cc3)nc2n1C1CCCC1 [Example 36, 1-Cyclopentyl-7-[4-(pyrazol-1-yl)phenylamino]pyrimido[4,5-d]pyrimidin-2(1H)-one] | 16100 | 2440 | > 50 | 435 | – | 1330 | > 50 | –
4 | CCN(CC)CCOc1ccc(Nc2ncc3c(n2)N(CC)C(=O)N(c2cc(OC)cc(OC)c2)C3)cc1 [Example 53a, 7-[4-(2-Diethylamino-ethoxy)-phenylamino]-3-(3,5-dimethoxy-phenyl)-1-ethyl-3,4-dihydro-pyrimido[4,5-d]pyrimidin-2(1H)-one] | – | – | < 0.5 | – | – | – | 0.02 | –
5 | CCN1C(=O)N(c2cc(OC)cc(OC)c2)Cc2cnc(NCCCCN3CCN(C)CC3)nc21 [Example 58, 3-(3,5-Dimethoxy-phenyl)-1-ethyl-7-[4-(4-methyl-piperazin-1-yl)-butylamino]-3,4-dihydro-pyrimido[4,5-d]pyrimidin-2(1H)-one] | – | – | – | – | – | – | – | 134
6 | CCN1C(=O)N(c2cc(OC)cc(OC)c2)Cc2cnc(NCCCCCN3CCN(C)CC3)nc21 [Example 59, 3-(3,5-Dimethoxy-phenyl)-1-ethyl-7-[5-(4-methyl-piperazin-1-yl)-pentylamino]-3,4-dihydro-pyrimido[4,5-d]pyrimidin-2(1H)-one] | – | – | – | – | – | – | – | 112
7 | CCN(CC)CCCNc1ncc2c(n1)N(CC)C(=O)N(c1cc(OC)cc(OC)c1)C2 [Example 60, 7-(3-Diethylamino-propylamino)-3-(3,5-dimethoxy-phenyl)-1-ethyl-3,4-dihydro-pyrimido[4,5-d]pyrimidin-2(1H)-one] | – | – | – | – | – | – | – | 943
8 | CCN(CC)CCCCNc1ncc2c(n1)N(CC)C(=O)N(c1cc(OC)cc(OC)c1Cl)C2 [Example 65, 3-(2-Chloro-3,5-dimethoxy-phenyl)-7-(4-diethylamino-butylamino)-1-ethyl-3,4-dihydro-pyrimido[4,5-d]pyrimidin-2(1H)-one] | – | – | – | – | – | – | – | 36
9 | C=CCn1c(=O)c2cnc(Nc3ccc(N4CCN(C)CC4)cc3)nc2n(C(C)C)c1=O [Example 70, 3-Allyl-1-isopropyl-7-[4-(4-methylpiperazin-1-yl)phenylamino]-1H-pyrimido[4,5-d]pyrimidine-2,4-dione] | > 40000 | – | > 50 | 3450 | – | > 40000 | > 50 | –
